Experimental data: ChEMBL document CHEMBL1144356 (J Med Chem, 2005)

Experiments:
[1] = target: T1, Peroxisome proliferator-activated receptor alpha (Homo sapiens, UniProt Q07869); assay: Effective concentration against human PPAR-alpha in Gal4 transactivation assay; format: functional
T1 sequence (Q07869 whole entry): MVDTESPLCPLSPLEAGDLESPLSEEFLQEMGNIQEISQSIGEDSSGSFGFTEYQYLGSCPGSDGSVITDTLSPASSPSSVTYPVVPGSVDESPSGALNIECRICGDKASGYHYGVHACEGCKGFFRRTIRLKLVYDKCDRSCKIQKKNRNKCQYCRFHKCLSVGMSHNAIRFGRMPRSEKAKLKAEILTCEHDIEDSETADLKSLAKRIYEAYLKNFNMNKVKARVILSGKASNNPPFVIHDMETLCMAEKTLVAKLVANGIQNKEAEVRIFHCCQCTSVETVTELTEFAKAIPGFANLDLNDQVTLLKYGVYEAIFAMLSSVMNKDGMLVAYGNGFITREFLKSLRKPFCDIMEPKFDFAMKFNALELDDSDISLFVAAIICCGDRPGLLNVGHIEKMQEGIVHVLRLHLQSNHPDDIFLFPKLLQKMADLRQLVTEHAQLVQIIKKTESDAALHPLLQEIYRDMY

[2] = In vitro binding affinity for PPAR-alpha; set-up: species or system Homo sapiens
[3] = target: T2, Peroxisome proliferator-activated receptor delta (Homo sapiens, UniProt Q03181); assay: In vitro binding affinity for PPAR-delta
T2 sequence (Q03181 whole entry): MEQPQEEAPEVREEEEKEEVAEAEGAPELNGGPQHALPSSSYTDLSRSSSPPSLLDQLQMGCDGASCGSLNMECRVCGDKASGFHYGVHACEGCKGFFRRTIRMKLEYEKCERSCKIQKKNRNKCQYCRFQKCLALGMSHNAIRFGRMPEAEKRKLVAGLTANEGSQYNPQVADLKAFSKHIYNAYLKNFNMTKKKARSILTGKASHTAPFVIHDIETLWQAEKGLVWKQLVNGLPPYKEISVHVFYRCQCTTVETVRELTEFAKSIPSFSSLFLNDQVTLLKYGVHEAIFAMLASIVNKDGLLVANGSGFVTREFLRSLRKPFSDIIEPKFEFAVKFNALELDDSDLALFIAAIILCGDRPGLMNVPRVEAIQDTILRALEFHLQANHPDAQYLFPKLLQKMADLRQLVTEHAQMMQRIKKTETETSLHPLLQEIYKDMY

[4] = target: T3, Peroxisome proliferator-activated receptor gamma (Homo sapiens, UniProt P37231); assay: In vitro binding affinity for PPAR-gamma
T3 sequence (P37231 whole entry): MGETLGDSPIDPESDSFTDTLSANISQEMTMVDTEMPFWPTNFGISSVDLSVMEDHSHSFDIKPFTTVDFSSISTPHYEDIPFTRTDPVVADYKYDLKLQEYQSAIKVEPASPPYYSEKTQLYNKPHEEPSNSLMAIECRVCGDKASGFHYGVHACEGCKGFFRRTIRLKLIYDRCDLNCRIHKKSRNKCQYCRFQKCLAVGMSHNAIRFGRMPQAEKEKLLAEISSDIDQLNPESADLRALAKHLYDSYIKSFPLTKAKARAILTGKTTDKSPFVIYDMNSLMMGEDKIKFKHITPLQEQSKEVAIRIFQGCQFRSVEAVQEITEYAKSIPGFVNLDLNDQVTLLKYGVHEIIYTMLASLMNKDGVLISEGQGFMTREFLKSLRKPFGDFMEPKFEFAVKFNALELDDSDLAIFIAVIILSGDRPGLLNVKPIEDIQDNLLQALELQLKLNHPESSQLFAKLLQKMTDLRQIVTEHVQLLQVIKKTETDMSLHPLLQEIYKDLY

Cricetinae gen. sp. [5] = assay: Effect at an oral dose of 1 mg/kg/day for 14 days on serum cholesterol level of hamster; format: functional, Cricetulus griseus
Cricetinae gen. sp. [6] = assay: Effect at an oral dose of 0.1 mg/kg/day for 14 days on serum cholesterol level of hamster; format: functional, Cricetulus griseus
Cricetinae gen. sp. [7] = assay: Effect at an oral dose of 0.3 mg/kg/day for 14 days on serum cholesterol level of hamster; format: functional, Cricetulus griseus
Cricetinae gen. sp. [8] = assay: Effect at an oral dose of 1 mg/kg/day for 14 days on serum triglyceride level of hamster; format: functional, Cricetulus griseus
Cricetinae gen. sp. [9] = assay: Effect at an oral dose of 0.3 mg/kg/day for 14 days on serum triglyceride level of hamster; format: functional, Cricetulus griseus
[10] = target: T3, Peroxisome proliferator-activated receptor gamma; assay: Effective concentration against human PPAR-gamma in Gal4 transactivation assay; 30% response at 3 uM; format: functional
Canis familiaris [11] = assay: Effect on cholesterol lowering in male Beagle dog at an oral dose of 0.1 mkd for 3 days
Canis familiaris [12] = assay: Effect on cholesterol lowering in male Beagle dog at an oral dose of 0.1 mkd for 7 days
Canis familiaris [13] = assay: Effect on cholesterol lowering in male Beagle dog at an oral dose of 0.3 mkd for 7 days
Canis familiaris [14] = assay: Effect on cholesterol lowering in male Beagle dog at an oral dose of 0.01 mkd for 3 days
Canis familiaris [15] = assay: Effect on cholesterol lowering in male Beagle dog at an oral dose of 0.01 mkd for 7 days
Canis familiaris [16] = assay: Effect on cholesterol lowering in male Beagle dog at an oral dose of 0.03 mkd for 7 days
Canis familiaris [17] = assay: Effect on cholesterol lowering in male Beagle dog at an oral dose of 0.1 mkd for 10 days
Canis familiaris [18] = assay: Effect on cholesterol lowering in male Beagle dog at an oral dose of 0.1 mkd for 15 days
Canis familiaris [19] = assay: Effect on cholesterol lowering in male Beagle dog at an oral dose of 0.3 mkd for 10 days
Canis familiaris [20] = assay: Effect on cholesterol lowering in male Beagle dog at an oral dose of 0.3 mkd for 15 days
Canis familiaris [21] = assay: Effect on cholesterol lowering in male Beagle dog at an oral dose of 0.03 mkd for 3 days
Canis familiaris [22] = assay: Effect on cholesterol lowering in male Beagle dog at an oral dose of 0.03 mkd for 10 days
Canis familiaris [23] = assay: Effect on cholesterol lowering in male Beagle dog at an oral dose of 0.03 mkd for 15 days
Canis familiaris [24] = assay: Effect on cholesterol lowering in male Beagle dog at an oral dose of 0.3 mkd for 7 days with 4 mkd simavastatin
Canis familiaris [25] = assay: Effect on cholesterol lowering in male Beagle dog at an oral dose of 0.3 mkd for 3 days with 4 mkd simavastatin
Canis familiaris [26] = assay: Effect on cholesterol lowering in male Beagle dog at an oral dose of 0.3 mkd for 10 days with 4 mkd simavastatin

**Q.** Which EC50 [1] does the source give for `CC[C@@]1(C(=O)O)Cc2cc(OCCCOc3ccc(OC(F)(F)F)cc3Cl)ccc2O1` here?
**A.** 2 nM

**Q.** What about the IC50 [2] of the same compound?
**A.** 6 nM

**Q.** And the IC50 [3]?
**A.** > 15 µM

**Q.** What about the IC50 [4] of the same compound?
**A.** > 15 µM

**Q.** And the TC (Cricetinae gen. sp. [5])?
**A.** -42%

**Q.** What about the TC (Cricetinae gen. sp. [6]) of the same compound?
**A.** -15%

**Q.** What about the TC (Cricetinae gen. sp. [7]) of the same compound?
**A.** -30%

**Q.** And the TG (Cricetinae gen. sp. [8])?
**A.** -43.65%

**Q.** What about the TG (Cricetinae gen. sp. [9]) of the same compound?
**A.** -31.85%

**Q.** What about the EC50 [10] of the same compound?
**A.** > 3 µM

**Q.** And the TC (Canis familiaris [11])?
**A.** -7.5%

**Q.** What about the TC (Canis familiaris [12]) of the same compound?
**A.** -18%

**Q.** What about the TC (Canis familiaris [13]) of the same compound?
**A.** -17.4%

**Q.** And the TC (Canis familiaris [14])?
**A.** -6.7%

**Q.** What about the TC (Canis familiaris [15]) of the same compound?
**A.** -7.2%

**Q.** What about the TC (Canis familiaris [16]) of the same compound?
**A.** -11.2%

**Q.** And the TC (Canis familiaris [17])?
**A.** -22.1%

**Q.** What about the TC (Canis familiaris [18]) of the same compound?
**A.** -22.1%

**Q.** What about the TC (Canis familiaris [19]) of the same compound?
**A.** -20.5%

**Q.** What about the TC (Canis familiaris [20]) of the same compound?
**A.** -24.2%

**Q.** What about the TC (Canis familiaris [21]) of the same compound?
**A.** -6.5%

**Q.** And the TC (Canis familiaris [22])?
**A.** -17.9%

**Q.** What about the TC (Canis familiaris [23]) of the same compound?
**A.** -24.3%

**Q.** What about the TC (Canis familiaris [24]) of the same compound?
**A.** -27.8%

**Q.** What about the TC (Canis familiaris [25]) of the same compound?
**A.** -14.2%

**Q.** What about the TC (Canis familiaris [26]) of the same compound?
**A.** -36.9%
